Results from patent publication US20090258069A1, “Delivery of LFA-1 antagonists to the gastrointestinal system” (priority 2008, published 2009).

Tested on: tester strains
Assay: In vitro Ames bacterial reverse mutation assay
Format: cell-based
Details: presence or absence of microsomal (S9) enzymes
Source text: Therefore, Compound 12 was judged to be not mutagenic.

**Q.** How did the “Ames assay, revertants per plate” value turn out when `CS(=O)(=O)c1cccc(C[C@H](NC(=O)c2c(Cl)cc3c(c2Cl)CCN(C(=O)c2ccc4ccoc4c2)C3)C(=O)O)c1` [Compound 12] was run?
**A.** The value was “not mutagenic”.
